Data as given in US6656937B2, “Substituted glutarimides and their use as inhibitors of IL-12 production” (Gruenenthal, GmbH, priority 2000, dated 2003).
Converted amounts (≈) assume the structure as drawn. Where a name gives a salt, the structure may show the parent alone.

Experiments:
[1] = system: IL-12 production by LPS-activated monocytes; test: Stimulation of human monocytes with lipopolysaccharide for secretion of IL-12 (IL-12 sandwich ELISA of culture supernatants); assay type: cell-based; details: CD14-positive human monocytes, 1 h preincubation with test substance, 20 μg/ml LPS from E. coli, 24 hours; for IC50: Monocyte, read-out: Inhibition of IL-12 production IC50
Protocol: Human monocytes were isolated from peripheral blood mononuclear cells (PBMC) obtained by means of a Ficoll density-gradient centrifugation of heparinized whole blood. To this end, the PBMC were incubated with a monoclonal antibody directed against the monocyte-specific surface molecule CD14 and to which superparamagnetic microbeads (Miltenyi Biotech, Bergisch Gladbach) are coupled. In order for the marked monocytes to be positively selected from the mixture of cells in the PBMC, the total cell suspension was transferred to a column with a ferromagnetic carrier matrix and the column placed in a magnetic field. This caused the cells loaded with microbeads to be bonded to the carrier matrix, whilst unmarked cells passed through the column and were discarded. After removing the matrix from the magnetic field, the antibody-loaded cells were eluted by rinsing the now demagnetised column with buffer. The purity of this CD 14-positive monocyte population thus obtained was around 95 to 98%. These monocytes were incubated in a density of 10^6 cells/ml culture medium (RPMI, supplemented with 10% fetal calf serum) with the test substances dissolved in DMSO for one hour at 37° C. and 5% CO2.20 μg/ml LPS from E. coli were then added. After 24 hours, cell-free culture supernatants were taken and tested for their IL-12 content.
The concentration of IL-12 in the cell culture supernatants was determined by means of sandwich ELISA using two anti-IL-12 monoclonal antibodies (Biosource Europe, Fleurus, Belgium). A reference standard curve with human IL-12 was included. The detection limit of the IL-12 ELISA was 10 pg/ml.

Molecule	Inhibition of IL-12 production IC50 [1]	melting point	IC50 [1]	Inhibition of IL-12 production Maximum (%) [1]
O=C1CCC(NCc2cc(Cl)ccc2Cl)C(=O)N1 (racemic) (as salt: hydrochloride) [Example 2.40, 3-(2,5-dichlorobenzylamino) piperidine-2,6-dione]		242 to 246 °C		
O=C1CC[C@H](NCc2ccccc2C(=O)O)C(=O)N1 [Example 6.1, 2-[(3S)-(2,6-dioxopiperidin-3-ylamino)methyl]benzoic acid]			1 µg/mL (≈ 3.81 µM)	85%
O=C1CC[C@H](NCc2ccccc2C(=O)N2CCOCC2)C(=O)N1 [Example 8.1]	1.8 µg/mL			90%
NNC(=O)c1ccccc1CN[C@H]1CCC(=O)NC1=O [Example 8.6, 2-[(3S)-(2,6-dioxopiperidin-3-ylamino)methyl]benzoic acid hydrazide]			0.04 µg/mL (≈ 0.145 µM)	90%
O=C1CC[C@@H](NCc2ccccc2C(=O)Nc2ccccc2)C(=O)N1 [Example 8.10, 2-[(3R)-(2,6-dioxopiperidin-3-ylamino)methyl]-N-phenyl benzamide]				50%
COC(=O)c1ccccc1CN[C@H]1CCC(=O)NC1=O [Example 9.1, 2-[(3S)-(2,6-dioxopiperidin-3-ylamino)methyl]methyl benzoate]	0.1 µg/mL			90%
O=C1CCC(CNc2ccc(-c3ccccc3)cc2)C(=O)N1 (stereo not drawn) [Example 11.4, 3-(biphenyl-4-ylaminomethyl) piperidine-2,6-dione]		135 to 138 °C		
O=C1CCC(CNc2ccc(C(c3ccccc3)(c3ccccc3)c3ccccc3)cc2)C(=O)N1 (stereo not drawn) [Example 11.6, 3-[(4-tritylphenylamino)methyl]piperidine-2,6-dione]		221 to 225 °C		
CN(CC1CCC(=O)NC1=O)c1ccccc1 (stereo not drawn) [Example 11.10, 3-[(N-methyl-N-phenylamino)methyl]piperidine-2,6-dione]		132 to 134 °C		
COc1ccc(NCC2CCC(=O)NC2=O)cc1 (stereo not drawn) [Example 11.13, 3-[(4-methoxyphenylamino)methyl]piperidine-2,6-dione]		131 to 134 °C		
NC(=O)c1ccccc1NCC1CCC(=O)NC1=O (stereo not drawn) [Example 11.15, 2-[(2,6-dioxopiperidin-3-ylmethyl)amino]benzamide]		203 to 206 °C		
CC(=O)c1ccc(NCC2CCC(=O)NC2=O)cc1 (stereo not drawn) [Example 11.16, 3-[(4-acetylphenylamino)methyl]piperidine-2,6-dione]		160 °C		
CC(=O)Nc1ccccc1CNC1CCC(=O)NC1=O (stereo not drawn) [Example 16]	3.0 µg/mL			95%
O=CNc1ccccc1CNC1CCC(=O)NC1=O (stereo not drawn) [Example 17, N-{2-[(2,6-dioxopiperidin-3-ylamino)methyl]phenyl}Formamide]			0.02 µg/mL (≈ 0.0765 µM)	98%
COC(=O)c1cc(SCC2CCC(=O)NC2=O)ccc1N (stereo not drawn) [Example 19, 2-amino-5-(2,6-dioxopiperidin-3-ylmethylsulfanyl) methyl benzoate]	5.0 µg/mL			66%
{2-[(3S)-(2,6-dioxopiperidin-3-ylamino)methyl]benzoylamino}methyl acetate [Example 8.2]	1.8 µg/mL			70%

Second part, led by results:

Inhibition of IL-12 production IC50 [1]	melting point	IC50 [1]	Molecule	Inhibition of IL-12 production Maximum (%) [1]
1.5 µg/mL			2-[(3S)-(2,6-dioxopiperidin-3-ylamino)methyl]benzyl benzoate [Example 9.2]	82%
	256 °C (dec.)		Cc1ccc(CNC2CCC(=O)NC2=O)cc1 (racemic) (as salt: hydrochloride) [Example 2.38, 3-(4-methylbenzylamino) piperidine-2,6-dione]	
	208 to 212 °C		CCOc1ccccc1CNC1CCC(=O)NC1=O (racemic) (as salt: hydrochloride) [Example 2.39, 3-(2-ethoxybenzylamino) piperidine-2,6-dione]	
	217 to 219 °C		COc1cccc(CNC2CCC(=O)NC2=O)c1 (racemic) (as salt: hydrochloride) [Example 2.41, 3-(3-methoxybenzylamino) piperidine-2,6-dione]	
	120 to 125 °C (dec.)		O=C1CCC(NCc2ccc3ccccc3c2)C(=O)N1 (racemic) [Example 2.12, 3-[(naphth-2-ylmethyl)amino]piperidine-2,6-dione]	
	157 to 162 °C		CN(Cc1cccc2ccccc12)C1CCC(=O)NC1=O (racemic) [Example 4.5, 3-(methylnaphth-1-ylmethylamino) piperidine-2,6-dione]	
		1 µg/mL (≈ 3.81 µM)	O=C1CC[C@@H](NCc2ccccc2C(=O)O)C(=O)N1 [Example 6.2, 2-[(3R)-(2,6-dioxopiperidin-3-ylamino)methyl]benzoic acid]	75%
		1.5 µg/mL (≈ 4.73 µM)	CCN(CC)C(=O)c1ccccc1CN[C@H]1CCC(=O)NC1=O [Example 7, 2-[(3S)-(2,6-dioxopiperidin-3-ylamino)methyl]-N,N-diethylbenzamide]	90%
		0.15 µg/mL (≈ 0.574 µM)	NC(=O)c1ccccc1CN[C@H]1CCC(=O)NC1=O [Example 8.3, 2-[(3S)-(2,6-dioxopiperidin-3-ylamino)methyl]benzamide]	90%
0.9 µg/mL			CCNC(=O)c1ccccc1CN[C@H]1CCC(=O)NC1=O [Example 8.4, 2-[(3S)-(2,6-dioxopiperidin-3-ylamino)methyl]-N-ethyl benzamide]	80%
2.0 µg/mL			O=C1CC[C@H](NCc2ccccc2C(=O)N2CCCC2)C(=O)N1 [Example 8.5]	80%
		0.7 µg/mL (≈ 2.07 µM)	O=C1CC[C@H](NCc2ccccc2C(=O)Nc2ccccc2)C(=O)N1 [Example 8.7, 2-[(3S)-(2,6-dioxopiperidin-3-ylamino)methyl]-N-phenylbenzamide]	55%
0.2 µg/mL			CCN(CC)C(=O)c1ccccc1CN[C@@H]1CCC(=O)NC1=O [Example 8.11, 2-[(3R)-(2,6-dioxopiperidin-3-ylamino)methyl]-N,N-diethyl benzamide]	90%
		1 µg/mL (≈ 3.83 µM)	NC(=O)c1ccccc1CN[C@@H]1CCC(=O)NC1=O [Example 8.12, 2-[(3R)-(2,6-dioxopiperidin-3-ylamino)methyl]benzamide]	84%
	149 to 150 °C		O=C1CCC(CNc2ccc(Br)cc2)C(=O)N1 (stereo not drawn) [Example 11.1, 3-[(4-bromophenylamino)methyl]piperidine-2,6-dione]	
	135 to 138 °C		O=C1CCC(CNc2cccc(C(F)(F)F)c2)C(=O)N1 (stereo not drawn) [Example 11.2, 3-[(3-trifluoromethylphenylamino)methyl]piperidine-2,6-dione]	
	145 to 148 °C		O=C1CCC(CNc2cccc3ccccc23)C(=O)N1 (stereo not drawn) [Example 11.3, 3-(naphth-1-ylaminomethyl) piperidine-2,6-dione]	
	129 to 132 °C		CC(=O)c1cccc(NCC2CCC(=O)NC2=O)c1 (stereo not drawn) [Example 11.9, 3-[(3-acetylphenylamino)methyl]piperidine-2,6-dione]	
	152 to 158 °C		O=C1CCC(CNc2cccc(C(=O)c3ccccc3)c2)C(=O)N1 (stereo not drawn) [Example 11.17, 3-[(3-benzoylphenylamino)methyl]piperidine-2,6-dione]	
	78 °C		O=C1CCC(CSCCc2ccccc2)C(=O)N1 (stereo not drawn) [Example 13.2, 3-phenethylsulfanylmethyl piperidine-2,6-dione]	
6.0 µg/mL			COC(=O)c1ccccc1SCC1CCC(=O)NC1=O (stereo not drawn) [Example 13.3, 2-(2,6-dioxopiperidin-3-ylmethyl)sulfanyl) methyl benzoate]	50%
3.0 µg/mL			COC(=O)c1cc(SCC2CCC(=O)NC2=O)ccc1[N+](=O)[O-] (stereo not drawn) [Example 18, 3-(2,6-dioxopiperidin-3-ylmethylsulfanyl)-6-nitro Methylbenzoate]	57%
